# Reference: ChEMBL document CHEMBL5247636, “Synthesis and antineoplastic activity of ethylene glycol phenyl aminoethyl ether derivatives as FOXM1 inhibitors” (Eur J Med Chem, 2022)
# What was measured:
# [1] = test system: SK-OV-3; test: cells; conditions: Homo sapiens
# Description: Antiproliferative activity against human SK-OV-3 cells assessed as inhibition of cell growth measured after 22 to 70 hrs by CCK-8 assay
# [2] = test system: HepG2; test: cells; conditions: Homo sapiens
# Description: Antiproliferative activity against human HepG2 cells assessed as inhibition of cell growth measured after 22 to 70 hrs by CCK-8 assay
# [3] = test system: HCT-116; test: cells; conditions: Homo sapiens
# Description: Antiproliferative activity against human HCT-116 cells assessed as inhibition of cell growth measured after 22 to 70 hrs by CCK-8 assay
# [4] = Cytotoxicity against human FTE-187 cells assessed as inhibition of cell growth upto 50 uM measured after 24 to 48 hrs by CCK-8 assay; type: toxicity, cell-based; conditions: fte-187, 50 µM, time 24-48 hrs
# [5] = test system: SK-OV-3; test: Cytotoxicity against human SK-OV-3 cells assessed as inhibition of cell growth measured after 24 hrs by CCK-8 assay; type: toxicity, cell-based; conditions: sk-ov-3, 24 h
# [6] = test system: A2780; test: Cytotoxicity against human A2780 cells assessed as inhibition of cell growth measured after 24 hrs by CCK-8 assay; type: toxicity, cell-based; conditions: a2780, 24 h
# [7] = test system: SK-OV-3; test: Down regulation of PLK1 expression in human SK-OV-3 cells by Western blotting analysis; type: functional, cell-based; conditions: dose 0.1-10 µg/ml
# [8] = test system: SK-OV-3; test: Down regulation of CDC25B expression in human SK-OV-3 cells by Western blotting analysis; type: functional, cell-based; conditions: dose 0.1-10 µg/ml
# [9] = test system: SK-OV-3; test: cells; conditions: Homo sapiens, SK-OV-3, 24 h
# Description: Cytotoxicity against human SK-OV-3 cells expressing low FOXM1 assessed as inhibition of cell growth measured after 24 hrs by CCK-8 assay
Structure (SMILES),IC50 [1] [µM],further results
c1ccc(COc2ccc(OCCOCCNC3CC3)cc2)cc1,47.2,–
O=C(O)c1ccc(COc2ccc(OCCOCCNC3CCCC3)cc2)cc1,> 100,–
OCCOCCOCCOc1ccc(OCc2ccccc2)cc1,59.4,–
COc1cc(OCCOCCNC2CCCC2)ccc1OCc1ccccc1,44.6,–
O=[N+]([O-])c1ccccc1COc1ccc(OCCOCCNC2CCCCC2)cc1,2.88,IC50 [2]: 25.5 µM; IC50 [3]: 11.1 µM
c1ccc(COc2ccc(OCCOCCNC3CCC3)cc2)cc1,25,–
COC(=O)c1ccc(COc2ccc(OCCOCCNC3CCCCC3)cc2)cc1,6.22,IC50 [2]: 30.3 µM; IC50 [3]: 5.3 µM
Clc1ccc(COc2ccc(OCCOCCNC3CCCCC3)cc2)cc1,2.65,Activity [4]: Non-Toxic; Activity [5]: Toxic; Activity [6]: Toxic; Activity [7]: Dose-Dependent Effect; Activity [8]: Dose-Dependent Effect; IC50 [2]: 15.1 µM; IC50 [3]: 2.69 µM; IC50 [9]: 65.4 µM
c1ncn(-c2ccc(OCCOCCNC3CCCC3)cc2)n1,> 100,–
c1ccc(COc2ccc(OCCOCCNC3CCCCC3)cc2)cc1,7.37,–
c1ccc(COc2ccc(COc3ccc(OCCOCCNC4CCCCC4)cc3)cc2)cc1,8.08,IC50 [2]: 18.1 µM; IC50 [3]: 4.35 µM
COc1ccc(OCCOCCNC2CCCC2)cc1,99.1,–
O=[N+]([O-])c1ccc(COc2ccc(OCCOCCNC3CCCC3)cc2)cc1,20.3,–
Clc1ccc(COc2ccc(OCCOCCNC3CCCC3)cc2)cc1,7.67,–
c1ccc(COc2ccc(OCCOCCNC3CCCCCC3)cc2)cc1,7.46,–
c1ccc(COc2ccc(OCCOCCNC3CCCC3)cc2)cc1,24.8,IC50 [2]: 25.4 µM; IC50 [3]: 12.9 µM
Nc1c(C(=O)Nc2ccc(F)cc2)sc2nc(-c3cccs3)cc(C(F)(F)F)c12,51.4,IC50 [2]: 70.5 µM; IC50 [3]: 86.1 µM
Nc1ccc(COc2ccc(OCCOCCNC3CCCC3)cc2)cc1,31.7,–
c1ccc(COc2ccc(COc3ccc(OCCOCCNC4CCCC4)cc3)cc2)cc1,10,–
O=C(O)c1ccccc1COc1ccc(OCCOCCNC2CCCC2)cc1,> 100,–
O=Cc1ccc(COc2ccc(OCCOCCNC3CCCC3)cc2)cc1,45,–

Structure (SMILES),IC50 [1] [µM],further results
COC(=O)c1ccccc1COc1ccc(OCCOCCNC2CCCC2)cc1,> 100,–
c1ccc(COc2ccc(OCCOCCOC3CCCC3)cc2)cc1,> 100,–
COc1ccc(COc2ccc(OCCOCCNC3CCCC3)cc2)cc1,15.7,–
O=C(O)c1cccc(COc2ccc(OCCOCCNC3CCCC3)cc2)c1,> 100,–
c1cc2c(cc1OCCOCCNC1CCCC1)CCCC2,31.9,–
CCOc1ccc(OCCOCCNC2CCCC2)cc1,90.5,–
COC(=O)c1ccc(COc2ccc(OCCOCCNC3CCCC3)cc2)cc1,6.99,–
COC(=O)c1cccc(COc2ccc(OCCOCCNC3CCCC3)cc2)c1,45.5,–
c1ccc(COc2ccc(OCCOCCNc3ccncc3)cc2)cc1,20.6,–
c1ccc(COc2ccc(OCCOCCNC3CCOC3)cc2)cc1 (stereo not given),48,–
CC(C)(C)OC(=O)n1ccc(NCCOCCOc2ccc(OCc3ccccc3)cc2)c1,13,–
Nc1ccccc1COc1ccc(OCCOCCNC2CCCC2)cc1,14,–
Cc1ccc(COc2ccc(OCCOCCNC3CCCC3)cc2)cc1,17.2,–
O=[N+]([O-])c1ccccc1COc1ccc(OCCOCCNC2CCCC2)cc1,5.37,–
Nc1cccc(COc2ccc(OCCOCCNC3CCCC3)cc2)c1,10.8,–
O=[N+]([O-])c1cccc(COc2ccc(OCCOCCNC3CCCC3)cc2)c1,15.4,–
c1ccc2cc(OCCOCCNC3CCCC3)ccc2c1,40.6,–
CN(C)CCOCCOc1ccc(OCc2ccccc2)cc1,11.9,–
c1ccc(COc2ccc(OCCOCCNc3cc[nH]c3)cc2)cc1,11.3,–
c1ccc(COc2ccccc2OCCOCCNC2CCCC2)cc1,40.7,–
c1ccc(COc2ccc(OCCOCCNc3ccccc3)cc2)cc1,> 100,–
